Entries after “also recorded” stand apart in the source; their conditions may differ.
What was measured:
[1] = system: HT-29 cells; assay: Antiproliferation; settings: for antiproliferation potency compared to compound 28: HT-29 cells; for GI50: Homo sapiens, HT-29, 72 h, read-out: HT-29 GI50; for antiproliferation potency improvement over comparator: HT-29, 3 vs 14, 24 vs 3, 25 vs 22, 26 vs 3, 27 vs 23
[2] = In vivo mouse PK study, single IP injection; set-up: species or system male Swiss Albino mice; settings: mice, single IP 50 mg/kg; for tolerability: no clinical signs or adverse effects observed
[3] = system: MEK1/2; assay: MEK1/2 protein levels in cells by Western blot; settings: HT-29 cells, 0.3, 1 and 3 μM, 24 h

Compound	antiproliferation potency compared to compound 28 [1]	MEK1/2 degradation (Western blot, words) [3]	other results
O=C1CCC(N2C(=O)c3cccc(NCCCCCCCCNCCCONC(=O)c4ccc(F)c(F)c4Nc4ccc(I)cc4F)c3C2=O)C(=O)N1 (centres unmarked) [Compound 34, N-(3-((8-((2-(2,6-Dioxopiperidin-3-yl)-1,3-dioxoisoindolin-4-yl)-amino)octyl)amino)propoxy)-3,4-difluoro-2-((2-fluoro-4-iodophenyl)amino)benzamide]	did not improve the antiproliferation potency		
Cc1ncsc1-c1ccc([C@H](C)NC(=O)[C@@H]2C[C@@H](O)CN2C(=O)[C@@H](NC(=O)CCCCCCCCCCCNCCCCONC(=O)c2ccc(F)c(F)c2Nc2ccc(I)cc2F)C(C)(C)C)cc1 [Compound 27, (2S,4R)-1-((S)-22-(tert-Butyl)-1-(3,4-difluoro-2-((2-fluoro-4-iodophenyl)amino)phenyl)-1,20-dioxo-3-oxa-2,8,21-triazatricosan-23-oyl)-4-hydroxy-N-((S)-1-(4-(4-methylthiazol-5-yl)phenyl)ethyl)pyrrolidine-2-carboxamide]			clearance comparison [2]: cleared more slowly than compound 24; plasma exposure comparison ([2]; 8 h period, 50 mg/kg): better plasma exposure than compound 24; also recorded: higher than that of the previously published MEK degrader 3; tolerability [2]: very well tolerated
O=C1CCC(N2C(=O)c3ccc(NCCCCCCCNCCCONC(=O)c4ccc(F)c(F)c4Nc4ccc(I)cc4F)cc3C2=O)C(=O)N1 (centres unmarked) [Compound 44, N-(3-((7-((2-(2,6-Dioxopiperidin-3-yl)-1,3-dioxoisoindolin-5-yl)amino)heptyl)amino)propoxy)-3,4-difluoro-2-((2-fluoro-4-iodophenyl)amino)benzamide]		significantly degraded both MEK1 and MEK2 proteins	GI50 [1]: 300 to 500 nM
O=C1CCC(N2C(=O)c3ccc(NCCCCCCCCNCCCONC(=O)c4ccc(F)c(F)c4Nc4ccc(I)cc4F)cc3C2=O)C(=O)N1 (centres unmarked) [Compound 45, N-(3-((8-((2-(2,6-Dioxopiperidin-3-yl)-1,3-dioxoisoindolin-5-yl)amino)octyl)amino)propoxy)-3,4-difluoro-2-((2-fluoro-4-iodophenyl)amino)benzamide]		significantly degraded both MEK1 and MEK2 proteins	
Cc1ncsc1-c1ccc(CNC(=O)[C@@H]2C[C@@H](O)CN2C(=O)[C@@H](NC(=O)CCCCCCCCCNCCCONC(=O)c2ccc(F)c(F)c2Nc2ccc(I)cc2F)C(C)(C)C)cc1 [Compound 13, (2S,4R)-1-((S)-19-(tert-Butyl)-1-(3,4-difluoro-2-((2-fluoro-4-iodophenyl)amino)phenyl)-1,17-dioxo-3-oxa-2,7,18-triazaicosan-20-oyl)-4-hydroxy-N-(4-(4-methylthiazol-5-yl)benzyl)pyrrolidine-2-carboxamide]		effectively degraded MEK1 and MEK2 proteins	
Cc1ncsc1-c1ccc([C@H](C)NC(=O)[C@@H]2C[C@@H](O)CN2C(=O)[C@@H](NC(=O)CCCCCCCCCCN(C)CCCONC(=O)c2ccc(F)c(F)c2Nc2ccc(I)cc2F)C(C)(C)C)cc1 [Compound 24, (2S,4R)-1-((S)-20-(tert-Butyl)-1-(3,4-difluoro-2-((2-fluoro-4-iodophenyl)amino)phenyl)-7-methyl-1,18-dioxo-3-oxa-2,7,19-triazahenicosan-21-oyl)-4-hydroxy-N-((S)-1-(4-(4-methylthiazol-5-yl)phenyl)ethyl)pyrrolidine-2-carboxamide]			tolerability [2]: very well tolerated
O=C1CCC(N2C(=O)c3ccc(NCCCCCNCCCONC(=O)c4ccc(F)c(F)c4Nc4ccc(I)cc4F)cc3C2=O)C(=O)N1 (centres unmarked) [Compound 42, N-(3-((5-((2-(2,6-Dioxopiperidin-3-yl)-1,3-dioxoisoindolin-5-yl)amino)pentyl)amino)propoxy)-3,4-difluoro-2-((2-fluoro-4-iodophenyl)amino)benzamide]		significant selectivity at degrading MEK2 over MEK1	GI50 [1]: 300 to 500 nM
Cc1ncsc1-c1ccc([C@H](C)NC(=O)[C@@H]2C[C@@H](O)CN2C(=O)[C@@H](NC(=O)CCCCCCCCCCNCCCCONC(=O)c2ccc(F)c(F)c2Nc2ccc(I)cc2F)C(C)(C)C)cc1 [Compound 26, (2S,4R)-1-((S)-21-(tert-Butyl)-1-(3,4-difluoro-2-((2-fluoro-4-iodophenyl)amino)phenyl)-1,19-dioxo-3-oxa-2,8,20-triazadocosan-22-oyl)-4-hydroxy-N-((S)-1-(4-(4-methylthiazol-5-yl)phenyl)ethyl)pyrrolidine-2-carboxamide]			antiproliferation potency improvement over comparator [1]: ~3 fold
O=C1CCC(N2C(=O)c3cccc(NCCNCCCONC(=O)c4ccc(F)c(F)c4Nc4ccc(I)cc4F)c3C2=O)C(=O)N1 (centres unmarked) [Compound 28, N-(3-((2-((2-(2,6-Dioxopiperidin-3-yl)-1,3-dioxoisoindolin-4-yl)-amino)ethyl)amino)propoxy)-3,4-difluoro-2-((2-fluoro-4-iodophenyl)amino)benzamide]		did not show obvious MEK1/2 degradation	GI50 [1]: 300 to 500 nM
O=C1CCC(N2C(=O)c3cccc(NCCCCCCNCCCONC(=O)c4ccc(F)c(F)c4Nc4ccc(I)cc4F)c3C2=O)C(=O)N1 (centres unmarked) [Compound 32, N-(3-((6-((2-(2,6-Dioxopiperidin-3-yl)-1,3-dioxoisoindolin-4-yl)-amino)hexyl)amino)propoxy)-3,4-difluoro-2-((2-fluoro-4-iodophenyl)amino)benzamide]	did not improve the antiproliferation potency		
O=C1CCC(N2C(=O)c3cccc(NCCCCCNCCCONC(=O)c4ccc(F)c(F)c4Nc4ccc(I)cc4F)c3C2=O)C(=O)N1 (centres unmarked) [Compound 31, N-(3-((5-((2-(2,6-Dioxopiperidin-3-yl)-1,3-dioxoisoindolin-4-yl)-amino)pentyl)amino)propoxy)-3,4-difluoro-2-((2-fluoro-4-iodophenyl)amino)benzamide]	did not improve the antiproliferation potency		
O=C1CCC(N2C(=O)c3cccc(NCCCCNCCCONC(=O)c4ccc(F)c(F)c4Nc4ccc(I)cc4F)c3C2=O)C(=O)N1 (centres unmarked) [Compound 30, N-(3-((4-((2-(2,6-Dioxopiperidin-3-yl)-1,3-dioxoisoindolin-4-yl)-amino)butyl)amino)propoxy)-3,4-difluoro-2-((2-fluoro-4-iodophenyl)amino)benzamide]	did not improve the antiproliferation potency		
O=C1CCC(N2C(=O)c3cccc(NCCCCCCCNCCCONC(=O)c4ccc(F)c(F)c4Nc4ccc(I)cc4F)c3C2=O)C(=O)N1 (centres unmarked) [Compound 33, N-(3-((7-((2-(2,6-Dioxopiperidin-3-yl)-1,3-dioxoisoindolin-4-yl)-amino)heptyl)amino)propoxy)-3,4-difluoro-2-((2-fluoro-4-iodophenyl)amino)benzamide]	did not improve the antiproliferation potency		
Cc1ncsc1-c1ccc(CNC(=O)[C@@H]2C[C@@H](O)CN2C(=O)[C@@H](NC(=O)CCCCCCCNCCCONC(=O)c2ccc(F)c(F)c2Nc2ccc(I)cc2F)C(C)(C)C)cc1 [Compound 11, (2S,4R)-1-((S)-17-(tert-Butyl)-1-(3,4-difluoro-2-((2-fluoro-4-iodophenyl)amino)phenyl)-1,15-dioxo-3-oxa-2,7,16-triazaoctadecan-18-oyl)-4-hydroxy-N-(4-(4-methylthiazol-5-yl)benzyl)pyrrolidine-2-carboxamide]		effectively degraded MEK1 and MEK2 proteins	
Cc1ncsc1-c1ccc([C@H](C)NC(=O)[C@@H]2C[C@@H](O)CN2C(=O)[C@@H](NC(=O)CCCCCCCCCNCCCCONC(=O)c2ccc(F)c(F)c2Nc2ccc(I)cc2F)C(C)(C)C)cc1 [Compound 25, (2S,4R)-1-((S)-20-(tert-Butyl)-1-(3,4-difluoro-2-((2-fluoro-4-iodophenyl)amino)phenyl)-1,18-dioxo-3-oxa-2,8,19-triazahenicosan-21-oyl)-4-hydroxy-N-((S)-1-(4-(4-methylthiazol-5-yl)phenyl)ethyl)pyrrolidine-2-carboxamide]			antiproliferation potency improvement over comparator [1]: about 4 fold
O=C1CCC(N2C(=O)c3cccc(NCCCNCCCONC(=O)c4ccc(F)c(F)c4Nc4ccc(I)cc4F)c3C2=O)C(=O)N1 (centres unmarked) [Compound 29, N-(3-((3-((2-(2,6-Dioxopiperidin-3-yl)-1,3-dioxoisoindolin-4-yl)-amino)propyl)amino)propoxy)-3,4-difluoro-2-((2-fluoro-4-iodophenyl)amino)benzamide]	did not improve the antiproliferation potency		
O=C1CCC(N2C(=O)c3ccc(NCCCNCCCONC(=O)c4ccc(F)c(F)c4Nc4ccc(I)cc4F)cc3C2=O)C(=O)N1 (centres unmarked) [Compound 40, N-(3-((3-((2-(2,6-Dioxopiperidin-3-yl)-1,3-dioxoisoindolin-5-yl)amino)propyl)amino)propoxy)-3,4-difluoro-2-((2-fluoro-4-iodophenyl)amino)benzamide]		did not show obvious MEK1/2 degradation	GI50 [1]: 300 to 500 nM
Cc1ncsc1-c1ccc([C@H](C)NC(=O)[C@@H]2C[C@@H](O)CN2C(=O)[C@@H](NC(=O)CCCCCCCCCCNCCCONC(=O)c2ccc(F)c(F)c2Nc2ccc(I)cc2F)C(C)(C)C)cc1 [Compound 3]			antiproliferation potency improvement over comparator [1]: 3 fold
O=C1CCC(N2C(=O)c3ccc(NCCOCCOCCOCCOCCNCCCONC(=O)c4ccc(F)c(F)c4Nc4ccc(I)cc4F)cc3C2=O)C(=O)N1 (centres unmarked) [Compound 49, N-((1-((2-(2,6-Dioxopiperidin-3-yl)-1,3-dioxoisoindolin-5-yl)amino)-3,6,9,12-tetraoxa-15-azaoctadecan-18-yl)oxy)-3,4-di-fluoro-2-((2-fluoro-4-iodophenyl)amino)benzamide]		significantly degraded both MEK1 and MEK2 proteins	GI50 [1]: 300 to 500 nM

— publication PMC7770057 (Journal of medicinal chemistry, 2020)
